Tests used:
[1] = test system: Beet Armyworm (Spodoptera exigua) ("BAW"); experiment: Bioassay on Beet Armyworm (BAW), 128-well diet tray assay, percent mortality; assay type: in vivo; conditions: for BAW rating (percent mortality class): Beet Armyworm, 128-well diet tray assay; for pest or weed control at 50 µg/cm2: Spodoptera exigua, read-out: BAW
How it was run: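 Larvae in covered diet trays held at 25 °C, 14:10 light-dark, for five to seven days. Percent mortality scored per well and averaged over eight wells per treatment.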

[2] = test system: Yellow Fever Mosquito "YFM" (Aedes aegypti); conditions: for YFM rating (mortality class): Yellow Fever Mosquito larvae, 96-well plates; for YFM: Table ABC (P), rating of mortality, Yellow Fever Mosquito
[3] = test system: Cabbage Looper (Trichoplusia ni) ("CL"); experiment: Bioassay on Cabbage Looper (CL), 128-well diet tray assay, percent mortality; assay type: in vivo; conditions: for CL rating (percent mortality class): Cabbage Looper, 128-well diet tray assay; for pest or weed control at 50 µg/cm2: Trichoplusia ni, read-out: CL
How it was run: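 Larvae held in covered diet trays at 25 °C, 14:10 light-dark, for five to seven days. Percent mortality scored per well and averaged over eight wells.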

| Structure (SMILES) | BAW rating (percent mortality class) [1] | YFM rating (mortality class) [2] | CL rating (percent mortality class) [3] | pest or weed control at 50 µg/cm2 [1] | YFM [2] | pest or weed control at 50 µg/cm2 [3] |
| --- | --- | --- | --- | --- | --- | --- |
| Cc1ccc(C(C)C)c(N2C(=O)CS/C2=N\C(=O)NCCCc2ccc(-c3ncn(-c4ccc(OC(F)(F)F)cc4)n3)cc2)c1 [F20, (Z)-1-(3-(2-isopropyl-5-methylphenyl)-4-oxothiazolidin-2-ylidene)-3-(3-(4-(1-(4-(trifluoromethoxy)phenyl)-1H-1,2,4-triazol-3-yl)phenyl)propyl)urea] | A (50-100) | A (80-100) | A (50-100) | – | – | – |
| Cc1ccc(C(C)C)c(NC(=S)NC(=O)NCCCc2ccc(-c3ncn(-c4ccc(OC(F)(F)F)cc4)n3)cc2)c1 [F21, 1-[(2-isopropyl-5-methyl-phenyl)carbamothioyl]-3-[3-[4-[1-[4-(trifluoromethoxy)phenyl]-1,2,4-triazol-3-yl]phenyl]propyl]urea] | A (50-100) | A (80-100) | A (50-100) | – | – | – |
| CC(C)c1ccccc1N1C(=O)CS/C1=N\C(=O)NC1CC1c1ccc(-c2ncn(-c3ccc(OC(F)(F)F)cc3)n2)cc1 (stereo not drawn) [F29, (Z)-1-(3-(2-isopropylphenyl)-4-oxothiazolidin-2-ylidene)-3-(2-(4-(1-(4-(trifluoromethoxy)phenyl)-1H-1,2,4-triazol-3-yl)phenyl)cyclopropyl)urea] | A (50-100) | A (80-100) | A (50-100) | – | – | – |
| Cc1ccc(N2C(=O)CS/C2=N\C(=O)NCCc2ccc(-c3ncn(-c4ccc(OC(F)(F)F)cc4)n3)cc2)c(C(C)C)c1 [P26, (Z)-1-(3-(2-isopropyl-4-methylphenyl)-4-oxothiazolidin-2-ylidene)-3-(4-(1-(4-(trifluoromethoxy)phenyl)-1H-1,2,4-triazol-3-yl)phenethyl)urea] | – | – | – | 50 to 100% | A (80-100) | 50 to 100% |
| Cc1cccc(N2C(=O)CS/C2=N\C(=O)NCCc2ccc(-c3ncn(-c4ccc(OC(F)(F)F)cc4)n3)cc2)c1C(C)C [P27, (Z)-1-(3-(2-isopropyl-3-methylphenyl)-4-oxothiazolidin-2-ylidene)-3-(4-(1-(4-(trifluoromethoxy)phenyl)-1H-1,2,4-triazol-3-yl)phenethyl)urea] | – | – | – | 50 to 100% | A (80-100) | 50 to 100% |
| CC(C)c1cc(F)ccc1N1C(=O)CS/C1=N\C(=O)NCCc1ccc(-c2ncn(-c3ccc(OC(F)(F)F)cc3)n2)cc1 [P28, (Z)-1-(3-(4-fluoro-2-isopropylphenyl)-4-oxothiazolidin-2-ylidene)-3-(4-(1-(4-(trifluoromethoxy)phenyl)-1H-1,2,4-triazol-3-yl)phenethyl)urea] | – | – | – | 50 to 100% | A (80-100) | 50 to 100% |
| CCCc1ccc(C)cc1N1C(=O)CS/C1=N\C(=O)NCCc1ccc(-c2ncn(-c3ccc(OC(F)(F)F)cc3)n2)cc1 [P29, (Z)-1-(3-(5-methyl-2-propylphenyl)-4-oxothiazolidin-2-ylidene)-3-(4-(1-(4-(trifluoromethoxy)phenyl)-1H-1,2,4-triazol-3-yl)phenethyl)urea] | – | – | – | 50 to 100% | A (80-100) | 50 to 100% |
| CC(C)(C)c1ccccc1N1C(=O)CS/C1=N\C(=O)NCCc1ccc(-c2ncn(-c3ccc(OC(F)(F)F)cc3)n2)cc1 [P30, (Z)-1-(3-(2-(tert-butyl)phenyl)-4-oxothiazolidin-2-ylidene)-3-(4-(1-(4-(trifluoromethoxy)phenyl)-1H-1,2,4-triazol-3-yl)phenethyl)urea] | – | – | – | 50 to 100% | A (80-100) | 50 to 100% |
| CCc1cc(C)ccc1N1C(=O)CS/C1=N\C(=O)NCCc1ccc(-c2ncn(-c3ccc(OC(F)(F)F)cc3)n2)cc1 [P31, (Z)-1-(3-(2-ethyl-4-methylphenyl)-4-oxothiazolidin-2-ylidene)-3-(4-(1-(4-(trifluoromethoxy)phenyl)-1H-1,2,4-triazol-3-yl)phenethyl)urea] | – | – | – | 50 to 100% | A (80-100) | 50 to 100% |
| CC(Cc1ccc(-c2ncn(-c3ccc(OC(F)(F)F)cc3)n2)cc1)NC(=O)/N=C1\SCC(=O)N1c1ccc(F)cc1C(C)C (stereo not drawn) [P33, (Z)-1-(3-(4-fluoro-2-isopropylphenyl)-4-oxothiazolidin-2-ylidene)-3-(1-(4-(1-(4-(trifluoromethoxy)phenyl)-1H-1,2,4-triazol-3-yl)phenyl)propan-2-yl)urea] | – | – | – | 50 to 100% | A (80-100) | 50 to 100% |
| CCc1cccc(C)c1N1C(=O)CS/C1=N\C(=O)NC(C)Cc1ccc(-c2ncn(-c3ccc(OC(F)(F)F)cc3)n2)cc1 (stereo not drawn) [P42, (Z)-1-(3-(2-ethyl-6-methylphenyl)-4-oxothiazolidin-2-ylidene)-3-(1-(4-(1-(4-(trifluoromethoxy)phenyl)-1H-1,2,4-triazol-3-yl)phenyl)propan-2-yl)urea] | – | – | – | 50 to 100% | A (80-100) | 50 to 100% |
| COc1ccc(N2C(=O)CS/C2=N\C(=O)NCCc2ccc(-c3ncn(-c4ccc(OC(F)(F)F)cc4)n3)cc2)c(C)c1 [P44, (Z)-1-(3-(4-methoxy-2-methylphenyl)-4-oxothiazolidin-2-ylidene)-3-(4-(1-(4-(trifluoromethoxy)phenyl)-1H-1,2,4-triazol-3-yl)phenethyl)urea] | – | – | – | 50 to 100% | A (80-100) | 50 to 100% |
| COc1ccc(N2C(=O)CS/C2=N\C(=O)NC(C)Cc2ccc(-c3ncn(-c4ccc(OC(F)(F)F)cc4)n3)cc2)c(C)c1 (stereo not drawn) [P45, (Z)-1-(3-(4-methoxy-2-methylphenyl)-4-oxothiazolidin-2-ylidene)-3-(1-(4-(1-(4-(trifluoromethoxy)phenyl)-1H-1,2,4-triazol-3-yl)phenyl)propan-2-yl)urea] | – | – | – | 50 to 100% | A (80-100) | 50 to 100% |
| COc1cc(C)c(N2C(=O)CS/C2=N\C(=O)NCCc2ccc(-c3ncn(-c4ccc(OC(F)(F)F)cc4)n3)cc2)c(C)c1 [P47, (Z)-1-(3-(4-methoxy-2,6-dimethylphenyl)-4-oxothiazolidin-2-ylidene)-3-(4-(1-(4-(trifluoromethoxy)phenyl)-1H-1,2,4-triazol-3-yl)phenethyl)urea] | – | – | – | 50 to 100% | A (80-100) | 50 to 100% |
| CCc1ccc(C)cc1N1C(=O)CS/C1=N\C(=O)NCCc1ccc(-c2ncn(-c3ccc(OC(F)(F)F)cc3)n2)cc1 [P49, (Z)-1-(3-(2-ethyl-5-methylphenyl)-4-oxothiazolidin-2-ylidene)-3-(4-(1-(4-(trifluoromethoxy)phenyl)-1H-1,2,4-triazol-3-yl)phenethyl)urea] | – | – | – | 50 to 100% | A (80-100) | 50 to 100% |
| CCc1cccc(C)c1N1C(=O)CS/C1=N\C(=O)NCCc1ccc(-c2ncn(-c3ccc(OC(F)(F)F)cc3)n2)cc1 [P50, (Z)-1-(3-(2-ethyl-6-methylphenyl)-4-oxothiazolidin-2-ylidene)-3-(4-(1-(4-(trifluoromethoxy)phenyl)-1H-1,2,4-triazol-3-yl)phenethyl)urea] | – | – | – | 50 to 100% | A (80-100) | 50 to 100% |
| Cc1ccc(C(C)C)c(N2C(=O)CS/C2=N\C(=O)NCCc2ccc(-c3ncn(-c4ccc(C(F)(F)F)cc4)n3)cc2)c1 [P52, (Z)-1-(3-(2-isopropyl-5-methylphenyl)-4-oxothiazolidin-2-ylidene)-3-(4-(1-(4-(trifluoromethyl)phenyl)-1H-1,2,4-triazol-3-yl)phenethyl)urea] | – | – | – | 50 to 100% | A (80-100) | 50 to 100% |
| COc1ccc(C(C)C)c(N2C(=O)CS/C2=N\C(=O)NCCc2ccc(-c3ncn(-c4ccc(C(F)(F)F)cc4)n3)cc2)c1 [P53, (Z)-1-(3-(2-isopropyl-5-methoxyphenyl)-4-oxothiazolidin-2-ylidene)-3-(4-(1-(4-(trifluoromethyl)phenyl)-1H-1,2,4-triazol-3-yl)phenethyl)urea] | – | – | – | 50 to 100% | A (80-100) | 50 to 100% |
| Cc1ccc(C(C)C)c(N2C(=O)C(C)S/C2=N\C(=O)NCCc2ccc(-c3ncn(-c4ccc(OC(F)(F)F)cc4)n3)cc2)c1 (stereo not drawn) [P57, (Z)-1-(3-(2-isopropyl-5-methylphenyl)-5-methyl-4-oxothiazolidin-2-ylidene)-3-(4-(1-(4-(trifluoromethoxy)phenyl)-1H-1,2,4-triazol-3-yl)phenethyl)urea] | – | – | – | 50 to 100% | A (80-100) | 50 to 100% |
| Cc1ccc(C(C)C)c(-n2c(C)cs/c2=N\C(=O)NCCc2ccc(-c3ncn(-c4ccc(OC(F)(F)F)cc4)n3)cc2)c1 [P65, (Z)-1-(3-(2-isopropyl-5-methylphenyl)-4-methylthiazol-2(3H)-ylidene)-3-(4-(1-(4-(trifluoromethoxy)phenyl)-1H-1,2,4-triazol-3-yl)phenethyl)urea] | – | – | – | 50 to 100% | A (80-100) | 50 to 100% |
| Cc1ccccc1N1C(=O)CS/C1=N\C(=O)NCCCCc1ccc(-c2ncn(-c3ccc(OC(F)(F)F)cc3)n2)cc1 [P144, (Z)-1-(4-oxo-3-(o-tolyl)thiazolidin-2-ylidene)-3-(4-(4-(1-(4-(trifluoromethoxy)phenyl)-1H-1,2,4-triazol-3-yl)phenyl)butyl)urea] | – | – | – | 50 to 100% | A (80-100) | 50 to 100% |

Reference: US20140274688A1, “MOLECULES HAVING CERTAIN PESTICIDAL UTILITIES, AND INTERMEDIATES, COMPOSITIONS, AND PROCESSES RELATED THERETO” (DOW AGROSCIENCES LLC, priority 2013, published 2014)
